Literature values as cited in patent US20170056386A1, “TOPICAL ANTIFUNGAL COMPOSITION FOR TREATING ONYCHOMYCOSIS” (Polichem SA, priority 2014, published 2017).

System: onychomycosis
Details: oral administration

Compound: CN(C/C=C/C#CC(C)(C)C)Cc1cccc2ccccc12 [terbinafine]
- Complete cure (patients): 38%
